Reference: patent US12617771B2, “Diphenylpyrazole compound, and preparation method therefor and application thereof” (NORTHWEST A&F UNIVERSITY, priority 2021, dated 2026)
Values joined by “and” are separate entries in the source; they are usually repeats but may differ in a detail not shown here. Equal entries are not always repeated.

Key:
Type in all cases: biochemical
Spodoptera litura GSTs = experiment: Inhibition of total GSTs enzyme of Spodoptera litura (CDNB method)
Description: (§1) Experiment: About 50 mg of larvae/nymphs of nine major pests such as Plutella xylostella, Mythimna separata, Pyrausta nubilalis, Chilo suppressalis, Nilaparvata lugens, Spodoptera frugiperda, Helicoverpa armigera, Carposina sasakii, Spodoptera litura were taken, grounded in a mortar pre-cooled at −80° C., and then 1 mL of 100 mM sodium phosphate buffer (1 mM EDTA, pH 7.2) was added and fully homogenized. The homogenate was transferred to a 1.5 mL centrifuge tube at 4° C., and centrifuged at 14,000 g for 30 minutes, and the supernatant was transferred to a new centrifuge tube as the GSTs total enzyme. The protein concentrations of the above total enzymes were determined using the BCA method.
(§2) 100 μL of PBS buffer (100 mM, pH 7.2) containing 1 mM GSH was taken and placed in a 96-well plate, 5 μg of insect total GSTs enzymes and an appropriate concentration of compounds PXG1-PXG29 (29 compounds) of the present invention were added to each well, after uniformly mixing, and allowed to stand at 30° C. for 10 min. Then 100 μL of PBS buffer (100 mM, pH 7.2) containing 1 mM CDNB was added to each well. Immediately after mixing, the mixture was placed in a microplate reader to measure the absorbance at a wavelength of 340 nm (A 340) once every 1 min, the measurement was carried out continuously for 5 min, the light absorption values of each measuring point were recorded and the inhibition rate in vitro of the compounds with different concentrations against insects total GSTs enzymes were calculated. Each group of assays was repeated three times, and total GSTs enzymes inactivated at 100° C. for 5 min were used as negative controls, and GTX was used as positive controls. GraphPad Prism 5 software was used for analysis and calculation of IC50. Relative inhibition was calculated using the following formula:
(§3) [formula] • wherein, A340 is the change of A340 within 5 minutes for the control group, and A340t is the change of A340 within 5 minutes for the experimental group.

PxGSTσ1 = PxGSTσ1 (Plutella xylostella, UniProt Q6F436); experiment: Inhibition of PxGSTσ1 recombinant protein; conditions: read-out: 100 μM Inhibition rate %
Description: (§4) Experiment: 100 μL of PBS buffer (100 mM, pH 7.2) was taken and added to a 96-well plate, 1 μg of PxGSTs recombinant protein and an appropriate concentration of the compounds PXG1-PXG29 of the present invention were added to each well, after uniformly mixing, and allowed to stand at 30° C. for 10 min. Then 100 μL of PBS buffer (100 mM, pH 7.2) containing 1 mM CDNB and 1 mM GSH was successively added to each well. Immediately after mixing, the mixture was placed in a microplate reader to measure the absorbance at a wavelength of 340 nm (A340) once every 1 min, the measurement was continued for 5 min, the light absorption values of each measuring point were recorded and the inhibition rate in vitro of the compounds PXG1-PXG29 of the present invention with different concentrations against PxGSTs recombinant protein were calculated. Each group of assays was repeated three times, and PxGSTs recombinant protein inactivated at 100° C. for 5 min was used as negative control, and GTX was used as positive control. GraphPad Prism 5 software was used for analysis and calculation of IC50. Relative inhibition was calculated using the following formula:
(§5) [formula] • wherein, A340c is the change of A340 […] the control group, an A340t is the change of A340 within 5 minutes for the experimental group.

Plutella xylostella GSTs = experiment: Inhibition of total GSTs enzyme of Plutella xylostella (CDNB method)
Description: as §1, §2, §3

Carposina sasakii GSTs = experiment: Inhibition of total GSTs enzyme of Carposina sasakii (CDNB method)
Description: as §1, §2, §3

PxGSTε3 = PxGSTε3 (Plutella xylostella, UniProt O77409); experiment: Inhibition of PxGSTε3 recombinant protein; conditions: read-out: 100 μM Inhibition rate %
Description: as §4, §5

Mythimna separata GSTs = experiment: Inhibition of total GSTs enzyme of Mythimna separata (CDNB method)
Description: as §1, §2, §3

PxGSTδ1 = PxGSTδ1 (Plutella xylostella, UniProt D7URW9); experiment: Inhibition of PxGSTδ1 recombinant protein; conditions: read-out: 100 μM Inhibition rate %
Description: as §4, §5

[1] = biological target: Helicoverpa armigera GSTs; experiment: Inhibition of total GSTs enzyme of Helicoverpa armigera (CDNB method)
Description: as §1, §2, §3

Pyrausta nubilalis GSTs = experiment: Inhibition of total GSTs enzyme of Pyrausta nubilalis (CDNB method)
Description: as §1, §2, §3

PxGSTσ2 = PxGSTσ2 (Plutella xylostella, UniProt Q6F443); experiment: Inhibition of PxGSTσ2 recombinant protein; conditions: read-out: 100 μM Inhibition rate %
Description: as §4, §5

Nilaparvata lugens GSTs = experiment: Inhibition of total GSTs enzyme of Nilaparvata lugens (CDNB method)
Description: as §1, §2, §3

Chilo suppressalis GSTs = experiment: Inhibition of total GSTs enzyme of Chilo suppressalis (CDNB method)
Description: as §1, §2, §3

[2] = tested on: Spodoptera frugiperda GSTs; experiment: Inhibition of total GSTs enzyme of Spodoptera frugiperda (CDNB method)
Description: as §1, §2, §3

Chain of PxGSTε3 (O77409 entry or part of it): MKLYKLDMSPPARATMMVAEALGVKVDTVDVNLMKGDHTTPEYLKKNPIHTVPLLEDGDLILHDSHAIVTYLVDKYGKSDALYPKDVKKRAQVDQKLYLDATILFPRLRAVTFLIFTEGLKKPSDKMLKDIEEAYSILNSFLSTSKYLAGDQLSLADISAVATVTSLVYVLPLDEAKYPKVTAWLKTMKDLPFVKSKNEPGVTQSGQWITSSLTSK
Chain of PxGSTσ1 (Q6F436 entry or part of it): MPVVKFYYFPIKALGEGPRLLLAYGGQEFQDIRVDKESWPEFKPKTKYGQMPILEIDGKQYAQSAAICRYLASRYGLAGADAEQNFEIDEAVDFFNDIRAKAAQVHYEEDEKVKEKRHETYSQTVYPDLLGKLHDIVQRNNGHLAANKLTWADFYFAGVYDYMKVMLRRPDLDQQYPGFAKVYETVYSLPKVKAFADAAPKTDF
Chain of PxGSTδ1 (D7URW9 entry or part of it): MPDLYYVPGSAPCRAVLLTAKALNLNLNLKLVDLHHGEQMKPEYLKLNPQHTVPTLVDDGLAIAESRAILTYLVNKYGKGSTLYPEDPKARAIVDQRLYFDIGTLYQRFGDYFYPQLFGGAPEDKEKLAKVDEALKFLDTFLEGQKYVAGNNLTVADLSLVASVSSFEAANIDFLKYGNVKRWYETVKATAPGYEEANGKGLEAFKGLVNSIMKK
Chain of PxGSTσ2 (Q6F443 entry or part of it): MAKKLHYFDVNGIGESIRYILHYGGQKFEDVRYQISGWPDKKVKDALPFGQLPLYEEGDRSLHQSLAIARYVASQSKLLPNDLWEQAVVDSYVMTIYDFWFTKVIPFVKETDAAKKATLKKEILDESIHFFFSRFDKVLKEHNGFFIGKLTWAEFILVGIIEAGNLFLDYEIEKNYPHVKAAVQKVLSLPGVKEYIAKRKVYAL

Row | Compound | IC50 (Spodoptera litura GSTs) [µM] | 100 μM Inhibition rate % (Spodoptera litura GSTs) [%] | inhibition at 100 µM (PxGSTσ1) [%] | IC50 (Plutella xylostella GSTs) [µM] | 100 μM Inhibition rate % (Plutella xylostella GSTs) [%] | IC50 (Carposina sasakii GSTs) [µM] | 100 μM Inhibition rate % (Carposina sasakii GSTs) [%] | inhibition at 100 µM (PxGSTε3) [%] | IC50 (Mythimna separata GSTs) [µM] | 100 μM Inhibition rate % (Mythimna separata GSTs) [%] | inhibition at 100 µM (PxGSTδ1) [%] | IC50 [1] | 100 μM Inhibition rate % [1] [%] | IC50 (Pyrausta nubilalis GSTs) [µM] | 100 μM Inhibition rate % (Pyrausta nubilalis GSTs) [%] | inhibition at 100 µM (PxGSTσ2) [%] | 100 μM Inhibition rate % (Nilaparvata lugens GSTs) [%] | 100 μM Inhibition rate % (Chilo suppressalis GSTs) [%] | 100 μM Inhibition rate % [2] [%] | IC50 (Nilaparvata lugens GSTs) [µM] | also measured
1 | CCCCCCSC[C@H](NC(=O)CC[C@H](N)C(=O)O)C(=O)NCC(=O)O [GTX, S-Hexylglutathione, reference compound] | 15.2 | 85.61 | 67.3 | 12.9 | 73.72 | 6.87 | 95.39 | 50.7 | 16.3 | 87.20 | 66.5 | 14.4 µM and 14.1 µM | 96.30 | 23.5 | 86.35 | 84.8 | 95.14 | 99.97 | 95.20 | – | –
2 | COc1cc(C(=O)NNC(=O)c2cc(-c3ccccc3)nn2-c2ccccc2)cc(OC)c1OC [PXG4, N′-(1,3-diphenyl-1H-pyrazol-5-yl-carbonyl)-3,4,5-trimethoxybenzohydrazine] | > 100 | −17.52 | 43.6 | > 100 | −10.64 | > 100 | 2.34 | 8.88 | > 100 | 0.00 | 18.4 | > 100 µM | 4.07 | > 100 | −7.23 | 21.6 | −5.99 | −10.90 | −7.57 | > 100 | IC50 (Chilo suppressalis GSTs): > 100 µM; IC50 [2]: > 100 µM
3 | O=C(COc1ccccc1)NNC(=O)c1cc(-c2ccccc2)nn1-c1ccccc1 [PXG5, N′-(1,3-diphenyl-1H-pyrazol-5-yl-carbonyl)-2-phenoxyacetohydrazide] | > 100 | 37.80 | 35.6 | > 100 | 11.58 | > 100 | 23.22 | -2.97 | > 100 | 47.24 | 81.7 | > 100 µM | 9.57 | > 100 | 14.08 | 24.5 | 23.90 | 28.17 | 31.42 | > 100 | IC50 (Chilo suppressalis GSTs): > 100 µM; IC50 [2]: > 100 µM
4 | CN(C)S(=O)(=O)c1ccc(C(=O)NNC(=O)c2cc(-c3ccccc3)nn2-c2ccccc2)cc1 [PXG29, 4-[N′-(1,3-diphenyl-1H-pyrazol-5-yl-carbonyl) hydrazinocarbonyl]-N,N-dimethyl phenyl-1-sulfonamide] | > 100 | 4.60 | 53.3 | > 100 | 9.32 | > 100 | 33.57 | 0.03 | > 100 | 4.90 | 16.7 | > 100 µM | 10.99 | > 100 | 10.83 | 44.7 | −10.71 | 13.81 | 4.82 | > 100 | IC50 (Chilo suppressalis GSTs): > 100 µM; IC50 [2]: > 100 µM
5 | CC1(c2ccccc2)NC(=O)N(NC(=O)c2cc(-c3ccccc3)nn2-c2ccccc2)C1=O (centres unmarked) [PXG12, N-(4-methyl-2,5-dioxo-4-phenylimidazolin-1-yl)-1,3-diphenyl-1H-pyrazol-5-yl-carboxamide] | > 100 | 4.60 | 48.3 | > 100 | 15.08 | > 100 | 17.94 | 10.9 | > 100 | 19.42 | 40.2 | > 100 µM | −5.00 | > 100 | 19.48 | 33.6 | −3.30 | 29.54 | 12.52 | > 100 | IC50 (Chilo suppressalis GSTs): > 100 µM; IC50 [2]: > 100 µM
6 | O=C(NN1C(=O)NC2(CCCCC2)C1=O)c1cc(-c2ccccc2)nn1-c1ccccc1 [PXG6] | > 100 | 6.90 | 49.1 | > 100 | 21.15 | > 100 | 18.21 | 4.85 | > 100 | 38.85 | 12.2 | > 100 µM | 23.21 | > 100 | 13.70 | 33.6 | −1.46 | 15.98 | 11.37 | > 100 | IC50 (Chilo suppressalis GSTs): > 100 µM; IC50 [2]: > 100 µM
7 | CC1CCC2(CC1)NC(=O)N(NC(=O)c1cc(-c3ccccc3)nn1-c1ccccc1)C2=O (centres unmarked) [PXG16, N-{8-methyl-2,4-dioxo-1,3-diazaspiro[4.5]dec-3-yl}-1,3-diphenyl-1H-pyrazol-5-yl-carboxamide] | > 100 | −0.15 | 70.5 | > 100 | 8.64 | > 100 | 6.98 | 4.12 | > 100 | 10.50 | 5.35 | > 100 µM | 2.28 | > 100 | 0.41 | 39.3 | −1.00 | 10.53 | −1.72 | > 100 | IC50 (Chilo suppressalis GSTs): > 100 µM; IC50 [2]: > 100 µM
8 | O=C(CC12C[C@H]3C[C@H](C1)C[C@@H](C2)C3)NNC(=O)c1cc(-c2ccccc2)nn1-c1ccccc1 [PXG26, N′-(1,3-diphenyl-1H-pyrazol-5-yl-carbonyl)-2-[(3r)-adamantan-1-yl]acetohydrazide] | > 100 | 15.89 | 67.9 | > 100 | 25.09 | > 100 | 18.11 | 7.12 | > 100 | 42.48 | 21.6 | > 100 µM | 24.75 | > 100 | −0.99 | 24.7 | 28.56 | 17.07 | 16.01 | > 100 | IC50 (Chilo suppressalis GSTs): > 100 µM; IC50 [2]: > 100 µM
